Test results as given in US20240180956A1, “A VAGINAL CONTRACEPTIVE COMPOSITION FOR REINFORCEMENT OF THE CERVICAL MUCUS BARRIER PROPERTIES” (CIRQLE BIOMEDICAL CONTRACEPTION APS, priority 2021, published 2024).

Tested on: human ovulatory cervical mucus
Assay: Sperm penetration through human cervical ovulatory mucus (capillary assay, phase contrast microscopy)
Format: cell-based
Conditions: PLL 5 mg/mL in 32.5 mM lactic acid; 30 minutes after exposure to undiluted sperm; vs lactic acid solution alone or untreated
Method: All chitosans were dissolved in a 100 mM or a 32.5 mM lactic acid solution at a concentration of 0.5% (w/v chitosan) and adjusted to pH 5.5 (pH±0.02) by the use of 0.1 or 1 M hydrochloric acid (HCl, Merck KgaA, Germany), and 0.1 or 1 M sodium hydroxide (NaOH, CPAchem Ltd., Bulgaria) or 50% NaOH (Sigma-Aldrich, USA).
Semen samples of patients and volunteers collected at the Andrology, Sexual Medicine, Transmedicine, clinic (ANOVA, Karolinska University Hospital, Sweden) were run through standard semen kinematic analyses and sperm penetration assays no later than 3 h after collection. Data were obtained for the collection time, abstinence time, and semen volume.
Semen was gently liquefied for 30 min on a rocker in an incubation chamber heated up to 37° C., after complete collection of ejaculates by masturbation. The viscosity of semen was determined visually and by pipetting. Semen was microscopically analysed by pipetting 6 μl of specimen in pre-warmed Leja® (Netherland) counting chamber slides (20 micron). Subsequently, specimens were assessed via clinical ECLIPSE 50i microscope (Nikon Instruments, Japan) equipped with stage heater MS 100 (37° C., Linkam Scientific Instruments, UK), 10× objective (Ph1) and 0.5× charge coupled device camera UI-1540LE-M-HQ (IDS Imaging Development Systems GmbH, Germany) with total magnification of 5×. […]

## poly-L-lysine [PLL]
  sperm detected throughout the capillary filled with ovulatory cervical mucus: Less sperm was detected
